Source: article PMC11510214, “Novel Dual Acetyl- and Butyrylcholinesterase Inhibitors Based on the Pyridyl–Pyridazine Moiety for the Potential Treatment of Alzheimer’s Disease” (Pharmaceuticals, 2024)
“And” between values parts separate entries of the source, which are not always exact repeats. Equal values may be shown once.

Legend:
[1] = biological target: T1, acetylcholinesterase (AChE) (Homo sapiens, UniProt P22303); assay: biochemical; settings: for IC50: IC50 against acetylcholinesterase (AChE), human enzyme, dose response 0.01 to 100 µM; for inhibition at 0.01 µM / inhibition at 0.1 µM / inhibition at 1 µM / inhibition at 10 µM / inhibition at 100 µM: read-out: % inhibition AChE;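 as to all read-outs here: Kit-based enzyme assay using enzymes of human origin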
Experimental: (§1) Experimental procedures were followed as instructed by the kits’ manufacturer. The enzymes used in the assays were of human origin. IC50 values of the compounds were calculated from the obtained dose response curve, and selectivity index was calculated as a ratio between (AChE/BuChE) IC50.

[2] = biological target: butyrylcholinesterase (BuChE) (Homo sapiens, UniProt P06276); assay: biochemical; settings: for IC50: IC50 against butyrylcholinesterase (BuChE), human enzyme, dose response 0.01 to 100 µM; for inhibition at 0.01 µM / inhibition at 0.1 µM / inhibition at 1 µM / inhibition at 10 µM / inhibition at 100 µM: read-out: % inhibition BuChE
Experimental: as §1

[3] = biological target: T1, acetylcholinesterase (AChE); settings: for Selectivity Index (AChE/BuChE): ratio between (AChE/BuChE) IC50; for IC50 against acetylcholinesterase (AChE): human enzyme, dose response 0.01 to 100 µM
Experimental: as §1

AChE = system: AChE; parameters: method as in PMID 23466605, PMID 10052979, PMID 29775949, PMID 31675671; settings: Figure 1; ref [37],[30],[34],[38],[36]; read-out: AChE inhibition IC50; cited from earlier work

T1 sequence (P22303 32-614): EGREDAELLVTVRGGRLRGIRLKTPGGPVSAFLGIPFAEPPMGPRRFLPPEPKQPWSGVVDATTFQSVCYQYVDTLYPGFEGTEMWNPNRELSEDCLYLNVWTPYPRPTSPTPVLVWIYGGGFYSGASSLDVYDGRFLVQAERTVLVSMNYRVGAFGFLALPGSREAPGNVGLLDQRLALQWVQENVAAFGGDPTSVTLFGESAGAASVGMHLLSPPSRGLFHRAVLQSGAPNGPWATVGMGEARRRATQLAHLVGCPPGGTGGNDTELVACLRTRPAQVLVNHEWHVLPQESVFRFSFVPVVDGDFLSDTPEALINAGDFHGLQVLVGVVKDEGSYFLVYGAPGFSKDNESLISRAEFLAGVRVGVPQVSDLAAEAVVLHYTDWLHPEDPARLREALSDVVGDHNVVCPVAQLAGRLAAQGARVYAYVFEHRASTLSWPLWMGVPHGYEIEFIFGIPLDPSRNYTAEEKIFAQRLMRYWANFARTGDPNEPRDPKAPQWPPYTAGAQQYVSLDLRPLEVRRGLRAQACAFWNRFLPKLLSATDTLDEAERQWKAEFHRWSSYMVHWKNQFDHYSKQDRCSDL
butyrylcholinesterase (BuChE), sequence (P06276 29-602): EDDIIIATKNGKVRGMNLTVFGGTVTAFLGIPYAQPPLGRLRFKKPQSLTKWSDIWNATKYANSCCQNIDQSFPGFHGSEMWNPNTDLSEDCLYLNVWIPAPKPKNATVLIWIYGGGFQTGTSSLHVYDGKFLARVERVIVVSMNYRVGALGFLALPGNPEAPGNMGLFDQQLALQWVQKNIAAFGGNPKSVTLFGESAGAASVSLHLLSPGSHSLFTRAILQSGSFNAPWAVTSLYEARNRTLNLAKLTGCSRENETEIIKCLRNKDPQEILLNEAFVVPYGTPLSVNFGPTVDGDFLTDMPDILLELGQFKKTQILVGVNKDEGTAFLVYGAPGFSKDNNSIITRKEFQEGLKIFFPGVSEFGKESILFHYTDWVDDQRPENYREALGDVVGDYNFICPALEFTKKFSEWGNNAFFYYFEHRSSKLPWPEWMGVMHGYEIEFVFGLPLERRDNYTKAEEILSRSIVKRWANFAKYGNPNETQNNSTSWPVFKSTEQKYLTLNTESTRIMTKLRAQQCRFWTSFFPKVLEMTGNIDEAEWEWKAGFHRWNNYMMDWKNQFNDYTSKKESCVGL

| SMILES | IC50 [1] | inhibition at 0.01 µM [1] [%] | inhibition at 0.1 µM [1] [%] | inhibition at 1 µM [1] [%] | inhibition at 10 µM [1] [%] | inhibition at 100 µM [1] [%] | IC50 [2] | inhibition at 0.01 µM [2] [%] | inhibition at 0.1 µM [2] [%] | inhibition at 1 µM [2] [%] | inhibition at 10 µM [2] [%] | inhibition at 100 µM [2] [%] | Selectivity Index (AChE/BuChE) [3] | IC50 against acetylcholinesterase (AChE) [3] | IC50 (AChE) [nM] |
| --- | --- | --- | --- | --- | --- | --- | --- | --- | --- | --- | --- | --- | --- | --- | --- |
| C#CCSc1ccc(-c2ccccn2)nn1 [Compound 1, 3-(Prop-2-yn-1-ylthio)-6-(pyridin-2-yl)pyridazine] | 11.5 ± 0.48 µM | 6.1 | 23 | 51 | 74 | 89 | 4.37 ± 0.14 µM | 8.7 | 19 | 27 | 54 | 83 | 2.64 | – | – |
| CC(=O)OCC1OC(n2cc(CSc3ccc(-c4ccccn4)nn3)nn2)C(OC(C)=O)C(OC(C)=O)C1OC(C)=O [Compound 3, (2R,3R,4S,5R,6R)-2-(Acetoxymethyl)-6-(4-(((6-(pyridin-2-yl)pyridazin-3-yl)thio)methyl)-1H-1,2,3-triazol-1-yl)tetrahydro-2H-pyran-3,4,5-triyltriacetate] | 8.71 µM and 8.7 µM | 7.4 | 23 | 43 | 72 | 88 | 0.297 µM and 0.29 µM | 25 | 39 | 61 | 79 | 93 | 29.32 | moderate inhibition | – |
| CC(=O)OC[C@H]1O[C@@H](n2cc(CSc3ccc(-c4ccccn4)nn3)nn2)[C@H](OC(C)=O)[C@@H](OC(C)=O)[C@H]1OC(C)=O [Compound 4, (2R,3S,4S,5R,6R)-2-(Acetoxymethyl)-6-(4-(((6-(pyridin-2-yl)pyridazin-3-yl)thio)methyl)-1H-1,2,3-triazol-1-yl)tetrahydro-2H-pyran-3,4,5-triyl triacetate] | 11.9 ± 0.5 µM | 11 | 29 | 47 | 71 | 87 | 14.6 ± 0.48 µM | 5.1 | 11 | 20 | 41 | 75 | 0.81 | – | – |
| CC(=O)OC1COC(n2cc(CSc3ccc(-c4ccccn4)nn3)nn2)C(OC(C)=O)C1OC(C)=O (centres unmarked) [Compound 5] | 0.266 µM and 0.26 µM | 42 | 61 | 71 | 83 | 94 | 0.189 µM and 0.18 µM | 25 | 48 | 67 | 78 | 91 | 1.41 | – | – |
| CC(=O)OC[C@H]1O[C@@H](n2cc(CSc3ccc(-c4ccccn4)nn3)nn2)[C@H](OC(C)=O)[C@@H]1OC(C)=O [Compound 6, (2R,3R,4R,5R)-2-(Acetoxymethyl)-5-(4-(((6-(pyridin-2-yl)pyridazin-3-yl)thio)methyl)-1H-1,2,3-triazol-1-yl)tetrahydrofuran-3,4-diyl diacetate] | 9.15 µM | 9 | 29 | 55 | 73 | 88 | 32 ± 1.05 µM | 4 | 8.1 | 19 | 33 | 69 | 0.29 | moderate inhibition | – |
| OC[C@H]1O[C@@H](n2cc(CSc3ccc(-c4ccccn4)nn3)nn2)[C@H](O)[C@@H](O)[C@@H]1O [Compound 7, (2R,3S,4S,5R,6R)-2-(Hydroxymethyl)-6-(4-(((6-(pyridin-2-yl)pyridazin-3-yl)thio)methyl)-1H-1,2,3-triazol-1-yl)tetrahydro-2H-pyran-3,4,5-triol] | 3.14 ± 0.13 µM | 14 | 38 | 62 | 80 | 92 | 7.9 ± 0.26 µM | 7.8 | 13 | 23 | 48 | 79 | 0.39 | moderate inhibition | – |
| OC[C@H]1O[C@@H](n2cc(CSc3ccc(-c4ccccn4)nn3)nn2)[C@H](O)[C@@H]1O [Compound 8, (2R,3S,4R,5R)-2-(Hydroxymethyl)-5-(4-(((6-(pyridin-2-yl)pyridazin-3-yl)thio)methyl)-1H-1,2,3-triazol-1-yl)tetrahydrofuran-3,4-diol] | 0.64 ± 0.02 µM | 26 | 43 | 62 | 88 | 93 | 5.35 ± 0.17 µM | 5.9 | 13 | 22 | 55 | 82 | 0.12 | – | – |
| OCCOCCn1cc(CSc2ccc(-c3ccccn3)nn2)nn1 [Compound 9] | 0.647 µM and 0.64 µM | 35 | 54 | 70 | 82 | 92 | 0.384 µM and 0.38 µM | 22 | 37 | 56 | 80 | 93 | 1.68 | – | – |
| OCCn1cc(CSc2ccc(-c3ccccn3)nn2)nn1 [Compound 10, 2-(4-(((6-(Pyridin-2-yl)pyridazin-3-yl)thio)methyl)-1H-1,2,3-triazol-1-yl)ethan-1-ol] | 1.84 ± 0.07 µM | 24 | 40 | 68 | 83 | 90 | 6.06 ± 0.2 µM | 5.6 | 13 | 31 | 51 | 78 | 0.30 | – | – |
| NCCn1cc(CSc2ccc(-c3ccccn3)nn2)nn1 [Compound 11, 2-(4-(((6-(Pyridin-2-yl)pyridazin-3-yl)thio)methyl)-1H-1,2,3-triazol-1-yl)ethan-1-amine] | 14.6 ± 0.61 µM | 7.5 | 26 | 53 | 76 | 90 | 42.9 ± 1.52 µM | -8.1 | 7.5 | 12 | 33 | 71 | 0.34 | – | – |
| COc1cc2c(cc1OC)C(=O)C(CC1CCN(Cc3ccccc3)CC1)C2 (centres unmarked) [Donepezil, donepezil, reference compound] | – | – | – | – | – | – | – | 16 | 32 | 65 | 84 | 94 | – | – | – |
| CCN(C)C(=O)Oc1cccc([C@H](C)N(C)C)c1 [Rivastigmine, rivastigmine, reference compound] | – | – | – | – | – | – | – | 0.7 | 3.2 | 7 | 38 | 80 | – | – | – |
| Cc1ccc(-c2ccc(=O)n(CCc3n[nH]c(=S)n3-c3ccc(OC(F)(F)F)cc3)n2)cc1 [VII] | – | – | – | – | – | – | – | – | – | – | – | – | – | – | 49 |
| CC(=O)OCC1O[C@@H](n2cc(CNc3c4c(nc5ccccc35)CCCC4)nn2)C(OC(C)=O)C(OC(C)=O)C1OC(C)=O (some centres unmarked) [VI] | – | – | – | – | – | – | – | – | – | – | – | – | – | – | 4890 |
| COc1ccc(-c2ccc(C(=O)NCCC3CCN(Cc4ccccc4)CC3)nn2)cc1 [V] | – | – | – | – | – | – | – | – | – | – | – | – | – | – | 110 |
